ChEMBL document CHEMBL1147813, “Design, molecular modeling, synthesis, and anti-HIV-1 activity of new indolyl aryl sulfones. Novel derivatives of the indole-2-carboxamide” (J Med Chem, 2006)

Experiments:
[1] = tested on: Human immunodeficiency virus 1; assay: Antiviral activity against HIV1 K103N-Y181C mutant in MT4 cell line; type: functional, organism-based; details: Human immunodeficiency virus 1, MT4
C8166 [2] = assay: Antiproliferative activity against C8166 cell line by MTT assay; type: functional; details: Homo sapiens, read-out: TC50 (the source's name)
MT4 [3] = assay: Selectivity index, TC50 for MT4 cell line/EC50 for HIV1; type: functional
Lymphocyte [4] = assay: Selectivity index, TC50 for human lymphocytes/EC50 for HIV-112; type: functional
[5] = tested on: Human immunodeficiency virus 1; assay: Antiviral activity against HIV1 Y181C mutant in MT4 cell line; type: functional, organism-based; details: Human immunodeficiency virus 1, MT4
[6] = tested on: Human immunodeficiency virus 1; assay: Antiviral activity against HIV1 in MT4 cell line; type: functional, organism-based; details: Human immunodeficiency virus 1, MT4
[7] = tested on: Human immunodeficiency virus; assay: Activity against HIV-112 assessed by inhibition of p24 production in human lymphocytes; type: functional, organism-based; details: Human immunodeficiency virus 1
[8] = tested on: Human immunodeficiency virus; assay: Activity against HIV-AB1 assessed by inhibition of p24 production in human lymphocytes; type: functional, organism-based; details: Human immunodeficiency virus 1
Macrophage [9] = assay: Cytotoxicity against human macrophages; type: functional; details: read-out: TC50 (the source's name)
Lymphocyte [10] = assay: Cytotoxicity against human lymphocytes; type: functional; details: read-out: TC50 (the source's name)
[11] = tested on: Human immunodeficiency virus 1; assay: Antiviral activity against HIV1 3B in MT4 cell line; type: functional, organism-based; details: Human immunodeficiency virus 1, 3B
C8166 [12] = assay: Selectivity index, TC50 for C8166 cell line/EC50 for HIV1; type: functional
Lymphocyte [13] = assay: Selectivity index, TC50 for human lymphocytes/EC50 for HIV1 3B; type: functional
MT4 [14] = assay: Cytotoxicity against MT4 cell line by MTT assay; type: functional; details: Homo sapiens, read-out: TC50 (the source's name)
Lymphocyte [15] = assay: Selectivity index, TC50 for human lymphocytes/EC50 for HIV-AB1; type: functional
[16] = tested on: Human immunodeficiency virus 1; assay: Antiviral activity against HIV1 […] in human macrophages; type: functional, organism-based
[17] = tested on: Human immunodeficiency virus 1; assay: Antiviral activity against HIV1 in C8166 cell line; type: functional, organism-based; details: Human immunodeficiency virus 1, C8166
Macrophage [18] = assay: Selectivity index, TC50 for human macrophages/EC50 for HIV1 […]; type: functional
[19] = tested on: Human immunodeficiency virus 1; assay: Activity against HIV1 3B assessed by inhibition of p24 production in human lymphocytes; type: functional, organism-based; details: Human immunodeficiency virus 1, 3B

SMILES | EC50 [1] | CC50 (C8166 [2]) | Selectivity index (MT4 [3]) | Selectivity index (Lymphocyte [4]) | EC50 [5] | EC50 ([6]; read-out: EC50) | EC50 ([6]; read-out: Log EC50 (converted)) | EC50 [7] | EC50 [8] | CC50 (Macrophage [9]) | CC50 (Lymphocyte [10]) | EC50 [11] | Selectivity index (C8166 [12]) | Selectivity index (Lymphocyte [13]) | CC50 (MT4 [14]) | Selectivity index (Lymphocyte [15]) | EC50 [16] | EC50 [17] | Selectivity index (Macrophage [18]) | EC50 [19]
O=C(NN1CCOC1=O)c1[nH]c2ccc(Cl)cc2c1S(=O)(=O)c1ccccc1 | > 20000 nM | > 100000 nM | >6666 | >250 | 300 nM | 15 nM | 15 nM | 400 nM | 500 nM | > 100000 nM | > 100000 nM | 15 nM | >5000 | >1000 | > 100000 nM | >200 | 60 nM | 20 nM | >1666 | 100 nM
Cc1cc(C)cc(S(=O)(=O)c2c(C(=O)NCC(=O)NN)[nH]c3ccc(Cl)cc23)c1 | 2600 nM | > 100000 nM | >5000 |  | 60 nM | 20 nM |  |  |  |  |  | 20 nM | >5000 |  | > 100000 nM |  |  | 20 nM |  | 
CC(=O)NNC(=O)c1[nH]c2ccc(Cl)cc2c1S(=O)(=O)c1cc(C)cc(C)c1 | > 20000 nM | > 100000 nM | >20000 | >12500 | 20 nM | 5 nM | 5 nM | 8 nM | 10 nM | > 100000 nM | > 100000 nM | 5 nM | >14285 | >10000 | > 100000 nM | >10000 | 8 nM | 7 nM | >12500 | 10 nM
Cc1cc(C)cc(S(=O)(=O)c2c(C(=O)NN3CCOC3=O)[nH]c3ccc(Cl)cc23)c1 | 900 nM | > 100000 nM | 111111 | >3333 | 10 nM | 0.9 nM | 0.899 nM | 30 nM | 20 nM | > 100000 nM | > 100000 nM | 1 nM | >33333 | >10000 | 100000 nM | >5000 |  | 3 nM | >50000 | 10 nM
CCOC(=O)NNC(=O)c1[nH]c2ccc(Cl)cc2c1S(=O)(=O)c1cc(C)cc(C)c1 | 9200 nM | > 100000 nM | 5000 | >3333 | 40 nM | 20 nM | 20 nM | 30 nM | 20 nM | > 100000 nM | > 100000 nM | 20 nM | >2000 | >5000 | 100000 nM | >5000 | 6 nM | 50 nM | >16666 | 20 nM
CNNC(=O)c1[nH]c2ccc(Cl)cc2c1S(=O)(=O)c1cc(C)cc(C)c1 | > 20000 nM | > 100000 nM | >5000 | >2500 | 130 nM | 20 nM | 20 nM | 40 nM | 20 nM | > 100000 nM | > 100000 nM | 50 nM | >3333 | >5000 | > 100000 nM | >5000 | 30 nM | 30 nM | >3333 | 20 nM
